According to PubChem BioAssay AID488795 (NMMLSC, 2010):
Active and inactive are the calls of the source. The rule behind the calls is not given here.

target: Vacuolar aminopeptidase 1 (Saccharomyces cerevisiae (strain ATCC 204508 / S288c)) (UniProt P14904); assay: LAP4-GFP modulation potency, analog set, SAR follow-up, cell-based, KU SAR set, flow cytometry (AID 488795); conditions: S. cerevisiae Lap4-GFP reporter, flow cytometry MCF
Sequence (P14904 whole entry, looked up): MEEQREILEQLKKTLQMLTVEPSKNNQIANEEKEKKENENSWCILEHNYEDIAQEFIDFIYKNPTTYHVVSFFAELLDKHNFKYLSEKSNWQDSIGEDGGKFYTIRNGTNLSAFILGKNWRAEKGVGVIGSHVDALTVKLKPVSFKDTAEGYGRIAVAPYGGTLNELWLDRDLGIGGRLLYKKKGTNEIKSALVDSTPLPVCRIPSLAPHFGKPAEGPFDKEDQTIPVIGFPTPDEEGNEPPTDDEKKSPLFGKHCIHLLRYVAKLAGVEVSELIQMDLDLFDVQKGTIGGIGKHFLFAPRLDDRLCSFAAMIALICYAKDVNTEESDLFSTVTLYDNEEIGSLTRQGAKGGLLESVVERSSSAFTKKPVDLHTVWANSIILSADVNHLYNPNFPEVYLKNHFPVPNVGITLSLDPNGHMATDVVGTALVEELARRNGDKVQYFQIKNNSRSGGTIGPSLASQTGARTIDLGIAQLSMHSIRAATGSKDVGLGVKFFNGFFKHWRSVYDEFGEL

EC50 | SMILES
6.93 µM | CC(C)(C)C(=O)C(Cl)C(=O)Nc1ccccc1 (centres undefined)
inactive | CSC1=NS(=O)(=O)c2c(C)nn(C)c2S1
inactive | Oc1c(I)cc(I)c2cccnc12
11.9 µM | COc1ccc([N+](=O)[O-])c(S(=O)(=O)c2ccccc2)n1
inactive | CCC(C)Nc1nc(N)c([N+](=O)[O-])c(Nc2cccc(F)c2)n1 (centres undefined)
4.01 µM | O=C(OCn1ncc(Br)c(Br)c1=O)c1ccc(F)cc1
19.9 µM | COC(=O)CCS(=O)(=O)c1nc(-c2ccccc2)cc(C(F)(F)F)n1
2.55 µM | Cc1ccc(S(=O)(=O)c2ccc([N+](=O)[O-])cn2)cc1
inactive | Cc1ccc(S(=O)(=O)c2ncccc2[N+](=O)[O-])cc1
12.5 µM | O=S(=O)(CCN(CCS(=O)(=O)C(F)(F)F)CC1CCCO1)C(F)(F)F (centres undefined)
1.22 µM | O=c1cc(CSc2ccc(Cl)cc2)nc(-c2ccccn2)[nH]1
inactive | Nc1cc(Nc2cccc(F)c2)nc(NCc2ccccc2)n1
3.53 µM | COc1ccc([N+](=O)[O-])c(S(=O)(=O)c2ccc(Cl)cc2)n1
1.94 µM | O=[N+]([O-])c1ccc(S(=O)(=O)c2cccc(C(F)(F)F)c2)nc1
inactive | CCSc1nnc(NC(=O)c2ccccn2)s1
6.32 µM | CCOC(=O)CS(=O)(=O)c1nc(-c2ccccc2)cc(C(F)(F)F)n1
inactive | O=C(Nc1nc(-c2ccccn2)cs1)C1COc2ccccc2O1 (centres undefined)

EC50 | SMILES
inactive | C/C(=N\NC(=O)c1cccc(Br)c1)c1ccccn1
14 µM | O=[N+]([O-])c1cc(S(=O)(=O)C(F)(F)F)ccc1Sc1nc2ccccc2s1
inactive | CCOC(=O)CSC1=NC(=O)/C(=C\c2ccc(Cl)cc2)S1
inactive | CN1CCN(C(=O)c2cc(COc3c(F)cccc3F)on2)CC1c1ccccc1 (centres undefined)
3.42 µM | O=C(CCc1ccccc1)NNC(=S)NC(=O)c1ccccc1
4.33 µM | O=C(OCn1ncc(Br)c(Br)c1=O)c1c(F)cccc1F
27.6 µM | CCOC(=O)CCS(=O)(=O)c1nc(-c2ccccc2)cc(C(F)(F)F)n1
4.36 µM | O=c1/c(=C/c2cccc3ccccc23)sc2ncnn12
4.05 µM | CCCCC(=O)NNC(=S)NC(=O)c1ccc(C)cc1
4.38 µM | CCCOc1ccc(C(=O)NNC(=S)NC(=O)CC)cc1
inactive | C/C(=N\NC(=O)c1ccc(C(C)(C)C)cc1)c1ccccn1
4.47 µM | Cc1ccc2nc(Cl)c3nnnn3c2c1
3.73 µM | Clc1ccc(N=c2ssnc2Cl)cc1
8.37 µM | CNc1nc(N)c([N+](=O)[O-])c(Nc2cccc(F)c2)n1
inactive | Nc1cc(Oc2cccc(Cl)c2)nc(NCc2ccccc2)n1
6.57 µM | O=[N+]([O-])c1ccc(O)c2ncccc12
inactive | CCN(CC)C(=O)Oc1ccnc2cc(Cl)ccc12
